Measurements: ChEMBL document CHEMBL5528047, “A Potent SOS1 PROTAC Degrader with Synergistic Efficacy in Combination with KRASG12C Inhibitor” (J Med Chem, 2024)
Calls of active or inactive are those of the source. No cut-off for these calls is given here.

Assays:
[1] = target: T1, Son of sevenless homolog 1 (Homo sapiens) (UniProt Q07889); assay: Induction of SOS1 degradation in human MIA PaCa-2 cells at 1 uM after 24 hrs by MS analysis; format: cell-based
T1 sequence (whole entry): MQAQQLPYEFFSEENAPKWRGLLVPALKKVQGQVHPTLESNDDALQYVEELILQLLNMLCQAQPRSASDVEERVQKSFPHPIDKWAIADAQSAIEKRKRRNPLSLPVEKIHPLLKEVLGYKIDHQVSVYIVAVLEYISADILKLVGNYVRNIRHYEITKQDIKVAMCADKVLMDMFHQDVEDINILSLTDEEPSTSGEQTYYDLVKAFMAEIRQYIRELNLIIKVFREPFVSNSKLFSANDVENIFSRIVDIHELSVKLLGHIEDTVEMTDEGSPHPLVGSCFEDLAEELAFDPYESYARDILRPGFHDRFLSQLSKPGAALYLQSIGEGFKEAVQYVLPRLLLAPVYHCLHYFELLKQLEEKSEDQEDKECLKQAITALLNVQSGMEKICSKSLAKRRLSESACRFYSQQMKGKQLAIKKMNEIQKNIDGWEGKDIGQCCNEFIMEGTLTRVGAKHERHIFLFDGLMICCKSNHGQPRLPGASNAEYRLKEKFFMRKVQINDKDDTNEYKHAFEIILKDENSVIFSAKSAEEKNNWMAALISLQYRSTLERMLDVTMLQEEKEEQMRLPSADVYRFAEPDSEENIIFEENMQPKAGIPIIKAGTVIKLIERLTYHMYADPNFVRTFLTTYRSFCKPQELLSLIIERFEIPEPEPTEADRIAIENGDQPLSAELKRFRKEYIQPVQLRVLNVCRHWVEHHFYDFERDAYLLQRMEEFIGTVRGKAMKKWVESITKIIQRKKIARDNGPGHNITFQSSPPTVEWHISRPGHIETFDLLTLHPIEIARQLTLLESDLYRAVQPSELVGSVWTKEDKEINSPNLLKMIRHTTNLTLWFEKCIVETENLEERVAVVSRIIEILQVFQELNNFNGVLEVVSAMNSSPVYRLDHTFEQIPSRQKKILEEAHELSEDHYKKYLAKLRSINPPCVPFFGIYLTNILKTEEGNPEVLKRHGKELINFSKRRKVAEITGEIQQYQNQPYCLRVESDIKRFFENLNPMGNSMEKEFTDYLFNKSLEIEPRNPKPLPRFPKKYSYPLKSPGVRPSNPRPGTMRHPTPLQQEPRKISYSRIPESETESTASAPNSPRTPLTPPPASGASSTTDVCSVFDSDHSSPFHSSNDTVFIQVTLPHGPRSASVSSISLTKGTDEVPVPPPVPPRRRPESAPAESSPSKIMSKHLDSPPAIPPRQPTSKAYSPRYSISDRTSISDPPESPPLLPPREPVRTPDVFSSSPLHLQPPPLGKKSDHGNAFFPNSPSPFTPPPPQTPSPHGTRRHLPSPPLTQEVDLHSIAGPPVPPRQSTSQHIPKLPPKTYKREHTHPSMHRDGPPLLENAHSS

[2] = target: T2, von Hippel-Lindau disease tumor suppressor/Son of sevenless homolog 1 (Homo sapiens, UniProt Q07889+P40337); assay: Protac activity at VHL/SOS1 in human K562 cells assessed as maximum SOS1 degradation at 0.003 to 10 uM incubated for 24 hrs by Western blotting analysis; format: cell-based; conditions: dose 0.003-10 µM
Target sequence in this assay (P40337 whole entry, looked up, one chain of several): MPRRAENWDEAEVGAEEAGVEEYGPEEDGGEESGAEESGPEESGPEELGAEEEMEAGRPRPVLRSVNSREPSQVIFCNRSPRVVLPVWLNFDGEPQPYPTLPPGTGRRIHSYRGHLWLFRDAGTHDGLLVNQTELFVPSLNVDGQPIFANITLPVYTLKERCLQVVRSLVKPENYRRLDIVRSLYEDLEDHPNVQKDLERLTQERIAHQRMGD

MIA PaCa-2 [3] = assay: Inhibition of ERK phosphorylation in human MIA PaCa-2 cells at 1 uM measured after 24 to 72 hrs in presence of AMG510 by Western blotting analysis; format: cell-based; conditions: time 24-72 hrs
[4] = Toxicity in BALB/c mouse xenografted with human NCI-H358 cells assessed as body weight loss at 30 mg/kg, ip administered once daily for 28 days in presence of 10 mg/kg 4-((S)-4-acryloyl-2-methylpiperazin-1-yl)-6-fluoro-7-(2-fluoro-6-hydroxyphenyl)-1-(2-isopropyl-4-methylpyridin-3-yl)pyrido[2,3-d]pyrimidin-2(1H)-one; format: organism-based; conditions: in vivo, 672 h, time 28 day
NCI-H358 [5] = assay: Synergistic antiproliferative activity against human NCI-H358 cells assessed as combination index incubated for 5 days in presence of 4-((S)-4-acryloyl-2-methylpiperazin-1-yl)-6-fluoro-7-(2-fluoro-6-hydroxyphenyl)-1-(2-isopropyl-4-methylpyridin-3-yl)pyrido[2,3-d]pyrimidin-2(1H)-one; format: functional; conditions: time 5 day
[6] = target: T2, von Hippel-Lindau disease tumor suppressor/Son of sevenless homolog 1; assay: Protac activity at VHL/SOS1 in human MIA PaCa-2 cells assessed as maximum SOS1 degradation at 0.003 to 10 uM incubated for 24 hrs by Western blotting analysis; format: cell-based; conditions: dose 0.003-10 µM
Target sequence in this assay (P40337 whole entry, looked up, one chain of several): as above

[7] = target: T2, von Hippel-Lindau disease tumor suppressor/Son of sevenless homolog 1; assay: Protac activity at VHL/SOS1 in human PANC-1 cells assessed as SOS1 degradation incubated for 24 hrs by Western blotting analysis; format: cell-based
NCI-H358 [8] = assay: Inhibition of colony formation in human NCI-H358 cells at 1 to 9 uM incubated for 10 days by crystal violet staining based assay; format: functional, cell-based; conditions: dose 1-9 µM, time 10.0 day
[9] = Toxicity in NOD-SCID mouse assessed as body weight loss at 5 to 25 mg/kg, ip administered as 5 days on and 2 days off schedule for 21 days; format: organism-based; conditions: in vivo, 120 h, dose 5-25 mg/kg, time 5 day
MIA PaCa-2 [10] = assay: Antiproliferative activity against human MIA PaCa-2 cells incubated for 72 hrs by CCK8 assay; format: functional, cell-based; conditions: MIA PaCa-2, 72 h
[11] = target: T2, von Hippel-Lindau disease tumor suppressor/Son of sevenless homolog 1; assay: Protac activity at VHL/SOS1 in human PANC-1 cells assessed as SOS1 degradation at 1 uM by Western blotting analysis relative to control; format: cell-based
Target sequence in this assay (P40337 whole entry, looked up, one chain of several): as above

MIA PaCa-2 [12] = assay: Induction of apoptosis in human MIA PaCa-2 cells assessed as increase in cleaved caspase-3 level incubated for 24 hrs in presence of 4-((S)-4-acryloyl-2-methylpiperazin-1-yl)-6-fluoro-7-(2-fluoro-6-hydroxyphenyl)-1-(2-isopropyl-4-methylpyridin-3-yl)pyrido[2,3-d]pyrimidin-2(1H)-one by Western blotting assay; format: functional, cell-based
[13] = target: T2, von Hippel-Lindau disease tumor suppressor/Son of sevenless homolog 1; assay: Protac activity at VHL/SOS1 in human PANC-1 cells assessed as SOS1 degradation at 1 uM incubated for 96 hrs by Western blotting analysis; format: cell-based
Target sequence in this assay (P40337 whole entry, looked up, one chain of several): as above

COc1cc2nc(C)nc(N[C@H](C)c3cc(N)cc(C(F)(F)F)c3)c2cc1OCCCCC(=O)N[C@H](C(=O)N1C[C@H](O)C[C@H]1C(=O)NCc1ccc(-c2scnc2C)cc1)C(C)(C)C
Activity [1]: Active
Emax [2]: > 90%
inhibition (MIA PaCa-2 [3]): Active
Activity [4]: Non-Toxic
CI (NCI-H358 [5]): <1
Emax [6]: > 90%
Activity [7]: Dose-Dependent Effect
DC50 [7]: 43 nM
inhibition (NCI-H358 [8]): Active
Activity [9]: Non-Toxic
IC50 (MIA PaCa-2 [10]): 98 nM
Activity [11]: 90.9%
Activity (MIA PaCa-2 [12]): Active
Activity [13]: Active
